Reference: ChEMBL document CHEMBL5543109, “Novel β-Hairpin Antimicrobial Peptide Containing the β-Turn Sequence of -NG- and the Tryptophan Zippers Facilitate Self-Assembly into Nanofibers, Exhibiting Excellent Antimicrobial Performance” (J Med Chem, 2024)
Values after ≈ are worked out from the molar mass of the structure shown. Active and inactive are the calls of the source. No cut-off for these calls is given here.

What was measured:
Escherichia coli [1] = assay: Antibacterial activity against Escherichia coli infected in BALB/c mouse systemic infection model assessed as reduction in spleen bacterial load at 5 mg/kg, ip measured after 24 hrs; assay type: functional, organism-based
Staphylococcus aureus [2] = assay: Synergistic antibacterial activity against methicillin resistant Staphylococcus aureus assessed as fractional inhibitory concentration index incubated for 18 hrs in presence of cefotaxime by checkerboard assay; assay type: functional
[3] = Elimination half life in Sprague-Dawley rat at 1 mg/kg, iv measured upto 120 mins by LC-MS analysis; assay type: ADME, organism-based; conditions: in vivo, read-out: beta t1/2
Staphylococcus aureus [4] = assay: Antibacterial activity against kanamycin resistant Staphylococcus aureus assessed as fractional inhibitory concentration index incubated for 18 hrs in presence of kanamycin by checkerboard assay; assay type: functional
[5] = Acute toxicity in mouse assessed as inflammatory cell infiltration in lung at 230.5 mg/kg, ip by H and E staining based assay; assay type: organism-based; conditions: in vivo
Staphylococcus aureus [6] = assay: Antibacterial activity against Staphylococcus aureus infected in BALB/c mouse systemic infection model assessed as reduction in liver bacterial load at 5 to 10 mg/kg, ip measured after 8 hrs; assay type: functional, organism-based; conditions: dose 5-10 mg/kg
Staphylococcus aureus [7] = assay: Additive antibacterial activity against methicillin resistant Staphylococcus aureus assessed as fractional inhibitory concentration index incubated for 18 hrs in presence of gentamycin by checkerboard assay; assay type: functional
Staphylococcus aureus [8] = assay: Additive antibacterial activity against Staphylococcus aureus 125 assessed as fractional inhibitory concentration index incubated for 18 hrs in presence of gentamycin by checkerboard assay; assay type: functional
Staphylococcus aureus [9] = assay: Antibacterial activity against kanamycin resistant Staphylococcus aureus incubated for 18 hrs by broth microdilution method; assay type: functional
Pseudomonas aeruginosa [10] = assay: Drug resistance against Pseudomonas aeruginosa assessed as fold increase in MIC after 40 consecutive days of passages by sequential passaging method; assay type: functional; conditions: time 18 hrs
Staphylococcus aureus [11] = assay: Antibacterial activity against Staphylococcus aureus 794 infected in BALB/c mouse skin wound infection model assessed as reduction in wound area at 1 mg/ml, ip pre-infected with bacteria for 24 hrs followed by compound addition and measured on day 9 to 13; assay type: functional, organism-based; conditions: time 9-13 day
Staphylococcus aureus [12] = assay: Synergistic antibacterial activity against Staphylococcus aureus 794 assessed as fractional inhibitory concentration index incubated for 18 hrs in presence of rifampin by checkerboard assay; assay type: functional
Cell membrane [13] = assay: Induction of outer membrane permeabilization in Escherichia coli within 1 min by NPN-dye based assay; assay type: cell membranes
Staphylococcus aureus [14] = assay: Antibacterial activity against Staphylococcus aureus at 2 times MIC preincubated for 1 hr with chymotrypsin followed by enzyme inactivation and bacterial addition and measured after 18 hrs; assay type: functional; conditions: time 19 hrs
Bacillus subtilis = assay: Antibacterial activity against Bacillus subtilis ATCC 23857 incubated for 18 hrs by broth microdilution method; assay type: functional
Escherichia coli [15] = assay: Antibacterial activity against kanamycin resistant Escherichia coli incubated for 18 hrs by broth microdilution method; assay type: functional
Pseudomonas aeruginosa [16] = assay: Antibacterial activity against Pseudomonas aeruginosa incubated for 18 hrs in presence of ZnCl2 by broth microdilution method; assay type: functional, organism-based
Staphylococcus aureus [17] = assay: Synergistic antibacterial activity against methicillin resistant Staphylococcus aureus 75 assessed as fractional inhibitory concentration index incubated for 18 hrs in presence of rifampin by checkerboard assay; assay type: functional
Staphylococcus aureus [18] = assay: Additive antibacterial activity against methicillin resistant Staphylococcus aureus assessed as fractional inhibitory concentration index incubated for 18 hrs in presence of ciprofloxacin by checkerboard assay; assay type: functional
Staphylococcus aureus [19] = assay: Antibacterial activity against Staphylococcus aureus incubated for 18 hrs in presence of CaCl2 by broth microdilution method; assay type: functional, organism-based
Staphylococcus aureus [20] = assay: Antibacterial activity against Staphylococcus aureus 794 infected in BALB/c mouse skin wound infection model assessed as wound healing by measuring thickened scab at 1 mg/ml, ip pre-infected with bacteria for 24 hrs followed by compound addition and measured on day 9; assay type: functional, organism-based; conditions: time 9.0 day
Staphylococcus aureus [21] = assay: Antibacterial activity against methicillin resistant Staphylococcus aureus 113 incubated for 18 hrs by broth microdilution method; assay type: functional
Escherichia coli [22] = assay: Synergistic antibacterial activity against kanamycin resistant Escherichia coli assessed as fractional inhibitory concentration index incubated for 18 hrs in presence of gentamycin by checkerboard assay; assay type: functional
Pseudomonas aeruginosa [23] = assay: Antibacterial activity against Pseudomonas aeruginosa incubated for 18 hrs in presence of NaCl by broth microdilution method; assay type: functional, organism-based
Staphylococcus aureus [24] = assay: Additive antibacterial activity against Staphylococcus aureus 125 assessed as fractional inhibitory concentration index incubated for 18 hrs in presence of streptomycin by checkerboard assay; assay type: functional
Staphylococcus aureus [25] = assay: Additive antibacterial activity against Staphylococcus aureus 125 assessed as fractional inhibitory concentration index incubated for 18 hrs in presence of kanamycin by checkerboard assay; assay type: functional
Staphylococcus aureus [26] = assay: Antibacterial activity against Staphylococcus aureus 794 infected in BALB/c mouse skin wound infection model assessed as wound healing at 1 mg/ml, ip pre-infected with bacteria for 24 hrs followed by compound addition and measured on day 4; assay type: functional, organism-based; conditions: time 4.0 day
Staphylococcus aureus [27] = assay: Antibacterial activity against Staphylococcus aureus 794 infected in BALB/c mouse skin wound infection model assessed as reduction in wound area at 1 mg/ml, ip pre-infected with bacteria for 24 hrs followed by compound addition and measured on day 5; assay type: functional, organism-based; conditions: time 5.0 day
[28] = Toxicity in BALB/c mouse infected with Staphylococcus aureus 794 assessed as cell necrosis at 1 mg/ml, ip pre-infected with bacteria for 24 hrs followed by compound addition and measured after 13 days in presence of vancomycin by H and E staining based histopathological analysis; assay type: organism-based; conditions: in vivo, 312 h, time 13 day
Staphylococcus aureus [29] = assay: Antibacterial activity against Staphylococcus aureus S125 incubated for 18 hrs by broth microdilution method; assay type: functional
Staphylococcus aureus [30] = assay: Antibacterial activity against Staphylococcus aureus 794 infected in BALB/c mouse skin wound infection model assessed as wound healing at 1 mg/ml, ip pre-infected with bacteria for 24 hrs followed by compound addition and measured after 13 days post infection; assay type: functional, organism-based; conditions: time 12.0 day
Staphylococcus aureus [31] = assay: Antibacterial activity against Staphylococcus aureus infected in BALB/c mouse systemic infection model assessed as reduction in kidney bacterial load at 5 to 10 mg/kg, ip measured after 8 hrs; assay type: functional, organism-based; conditions: dose 5-10 mg/kg
Escherichia coli [32] = assay: […] antibacterial activity against Escherichia coli assessed as fractional inhibitory concentration index incubated for 18 hrs in presence of polymyxin B by checkerboard assay; assay type: functional
Staphylococcus aureus [33] = assay: Additive antibacterial activity against Staphylococcus aureus assessed as fractional inhibitory concentration index incubated for 18 hrs in presence of bacitracin by checkerboard assay; assay type: functional
Pseudomonas aeruginosa [34] = assay: Antibacterial activity against Pseudomonas aeruginosa incubated for 18 hrs in presence of NH4Cl by broth microdilution method; assay type: functional, organism-based
Cell membrane [35] = assay: Induction of cell membrane disruption in Staphylococcus aureus assessed as PI uptake at 2 times MIC incubated for 2 hrs by PI staining based flow cytometry analysis (reference value: 15.9%); assay type: cell membranes
Staphylococcus aureus [36] = assay: Additive antibacterial activity against Staphylococcus aureus 794 assessed as fractional inhibitory concentration index incubated for 18 hrs in presence of kanamycin by checkerboard assay; assay type: functional
Staphylococcus aureus [37] = assay: Synergistic antibacterial activity against Staphylococcus aureus 794 assessed as fractional inhibitory concentration index incubated for 18 hrs in presence of bacitracin by checkerboard assay; assay type: functional
Cell membrane [38] = assay: Induction of inner membrane permeabilization in Escherichia coli ML-35 at 1 to 4 times MIC measured every 5 mins for 120 mins by ONPG dye based assay; assay type: cell membranes
Staphylococcus aureus [39] = assay: Antibacterial activity against Staphylococcus aureus incubated for 18 hrs in presence of FeCl3 by broth microdilution method; assay type: functional, organism-based
Pseudomonas aeruginosa [40] = assay: Induction of morphological change in Pseudomonas aeruginosa assessed as bacterial deformation at 2 times MIC incubated for 30 mins by SEM analysis; assay type: functional, organism-based

Structure (SMILES): NCCCC[C@@H](NC(=O)[C@H](N)Cc1c[nH]c2ccccc12)C(=O)N[C@H](Cc1c[nH]c2ccccc12)C(=O)N[C@H](CCCCN)C(=O)N[C@H](Cc1c[nH]c2ccccc12)C(=O)N[C@@H](CC(N)=O)C(=O)NCC(=O)N[C@H](Cc1c[nH]c2ccccc12)C(=O)N[C@H](CCCCN)C(=O)N[C@H](Cc1c[nH]c2ccccc12)C(=O)N[C@H](CCCCN)C(=O)N[C@H](Cc1c[nH]c2ccccc12)C(N)=O
- Activity (Escherichia coli [1]): Active
- fractional inhibitory concentration index (FICI) (Staphylococcus aureus [2]): 0.313
- half-life [3]: 11.4 min
- fractional inhibitory concentration index (FICI) (Staphylococcus aureus [4]): 0.563
- Activity [5]: Toxic
- Activity (Staphylococcus aureus [6]): Active
- fractional inhibitory concentration index (FICI) (Staphylococcus aureus [7]): 0.75
- fractional inhibitory concentration index (FICI) (Staphylococcus aureus [8]): 0.563
- MIC (Staphylococcus aureus [9]): 4 µM (≈ 7.27 µg/mL)
- fold change (FC) (Pseudomonas aeruginosa [10]): 4
- Activity (Staphylococcus aureus [11]): Active
- fractional inhibitory concentration index (FICI) (Staphylococcus aureus [12]): 0.188
- Activity (Cell membrane [13]): Dose-Dependent Effect
- Activity (Staphylococcus aureus [14]): 100%
- MIC (Bacillus subtilis): 2 µM (≈ 3.64 µg/mL)
- MIC (Escherichia coli [15]): 16 µM (≈ 29.1 µg/mL)
- Activity (Pseudomonas aeruginosa [16]): Active
- fractional inhibitory concentration index (FICI) (Staphylococcus aureus [17]): 0.313
- fractional inhibitory concentration index (FICI) (Staphylococcus aureus [18]): 0.563
- Activity (Staphylococcus aureus [19]): Active
- Activity (Staphylococcus aureus [20]): Active
- MIC (Staphylococcus aureus [21]): 8 µM (≈ 14.5 µg/mL)
- fractional inhibitory concentration index (FICI) (Escherichia coli [22]): 0.188
- Activity (Pseudomonas aeruginosa [23]): Active
- fractional inhibitory concentration index (FICI) (Staphylococcus aureus [24]): 1
- fractional inhibitory concentration index (FICI) (Staphylococcus aureus [25]): 0.563
- Activity (Staphylococcus aureus [26]): inactive
- Activity (Staphylococcus aureus [27]): Active
- Activity [28]: Toxic
- MIC (Staphylococcus aureus [29]): 8 µM (≈ 14.5 µg/mL)
- Activity (Staphylococcus aureus [30]): Active
- Activity (Staphylococcus aureus [31]): Active
- fractional inhibitory concentration index (FICI) (Escherichia coli [32]): 0.375
- fractional inhibitory concentration index (FICI) (Staphylococcus aureus [33]): 0.563
- Activity (Pseudomonas aeruginosa [34]): Active
- Activity (Cell membrane [35]): 96.6%
- fractional inhibitory concentration index (FICI) (Staphylococcus aureus [36]): 0.563
- fractional inhibitory concentration index (FICI) (Staphylococcus aureus [37]): 0.313
- Activity (Cell membrane [38]): Active
- Activity (Staphylococcus aureus [39]): Active
- Activity (Pseudomonas aeruginosa [40]): Active
